The values that follow are results of earlier work, collected in patent US11737985B2 (priority 2013, dated 2023).

Molecules are shown by their SMILES. Where two headings read alike, the source gives them in different places.

The conditions of data set [1]: Americas group, at four months; cited from earlier work.
The conditions of data set [2]: in vivo; cited from earlier work.
For data set [3] the following is noted: with spironolactone treatment, 12 patients, p<0.05, cited from earlier work.
For data set [4] the following is noted: cited from earlier work; for mean concentration in plasma: cancer patients; for Cmax / Tmax: single dose 182 mg controlled-release tablet.
For data set [5] the following is noted: in vivo; cited from earlier work. This is another data set of the same source.

In the case of `CC(=O)S[C@@H]1CC2=CC(=O)CC[C@]2(C)[C@H]2CC[C@@]3(C)[C@@H](CC[C@@]34CCC(=O)O4)[C@H]12` [Spironolactone], the “patients discontinuing the study drug due to hyperkalemia” value in data set [1] was 25.2%. In data set [2], the half-life entry is on record as “about 1.5 h” and the “time to steady state concentration” value was 7 to 10 days. Also, in data set [3] (vs. 13.6±10.8), the hypoxic index was 6.7±6.6 events/h. For the same compound, the AHI in data set [3] (vs. 39.8±19.5) is listed as 22.0±6.8 events/h.
With `NNc1nncc2ccccc12` [hydralazine, 1-hydrazinophthalazine], the “mean concentration in plasma” value in data set [4] (fast acetylators, 182 mg daily controlled-release) was 239.1 ng/mL; in data set [4] (slow acetylators, 83 mg daily controlled-release), 259.2 ng/mL. Moreover, the Cmax is 208.4 ± 56.9 ng/mL in data set [4] (fast acetylators, ± SD) and 470.4 ± 162.8 ng/mL in data set [4] (slow acetylators). In addition, the Tmax in data set [4] (fast acetylators) is 2.8 ± 2.5 h; in data set [4] (slow acetylators), 4.4 ± 3.1 h. In addition, the systemic clearance result in data set [5] is given as “approximately 50 ml/kg/min”.

The Cmax is the peak of the concentration-time curve. A word on the Tmax: it is the time from dosing to the highest level.
